Test results reported in PubChem BioAssay (NCI).
Where “and” joins values, the source holds several entries; their conditions need not be identical. Equal values may be shown once.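 Five concentrations, 48 hours, 96-well plates. GI50 marks 50% less growth. TGI: total growth inhibition.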

Tests used:
Assay in all cases: DTP human tumour cell line panel, 48 h
T-47D breast = system: T-47D breast
IGROV1 ovarian = system: IGROV1 ovarian
RXF 393 renal = system: RXF 393 renal
ACHN renal = system: ACHN renal
UO-31 renal = system: UO-31 renal
SW-620 colon = system: SW-620 colon
PC-3 prostate = system: PC-3 prostate
NCI-H226 lung = system: NCI-H226 lung
OVCAR-8 ovarian = system: OVCAR-8 ovarian
SK-MEL-5 melanoma = system: SK-MEL-5 melanoma

| SMILES | GI50 (T-47D breast) | TGI (T-47D breast) [µM] | GI50 (IGROV1 ovarian) | TGI (IGROV1 ovarian) | GI50 (RXF 393 renal) | TGI (RXF 393 renal) | GI50 (ACHN renal) | TGI (ACHN renal) [µM] | GI50 (UO-31 renal) | TGI (UO-31 renal) [µM] | GI50 (SW-620 colon) | TGI (SW-620 colon) [µM] | GI50 (PC-3 prostate) | TGI (PC-3 prostate) [µM] | GI50 (NCI-H226 lung) | TGI (NCI-H226 lung) [µM] | GI50 (OVCAR-8 ovarian) [µM] | TGI (OVCAR-8 ovarian) [µM] | GI50 (SK-MEL-5 melanoma) | TGI (SK-MEL-5 melanoma) [µM] |
| --- | --- | --- | --- | --- | --- | --- | --- | --- | --- | --- | --- | --- | --- | --- | --- | --- | --- | --- | --- | --- |
| COc1cc(Cl)cc(-c2nn(C(=O)NCCN3CCOCC3)cc2-c2ccncc2)c1 | 5.78 µM | > 100 | 4.98 µM | > 100 µM | 2.67 µM | 19.9 µM | 5.52 µM | 90.2 | 3.85 µM | 64.6 | 4.28 µM | 32.7 | 4.24 µM | > 100 | 7.2 µM | 48.9 | 7.61 | > 100 | 2.59 µM | 13.1 |
| COc1ccc(C(=O)/C=C/c2ccc(/C=C/c3cc(OC)c(OC)c(OC)c3)cc2)cc1 | 6.19 µM | > 100 | 9.24 µM | 76.4 µM | 8.01 µM | 43.6 µM | 11.6 µM | > 100 | 4.64 µM | > 100 | 4.5 µM | > 100 | 5.65 µM | > 100 | 3.57 µM | 22.8 | 3.76 | 61.1 | 3.39 µM | 19.2 |
| Cc1c(C(=O)/C=C/c2csc3ccccc23)[n+](=O)c2ccccc2n1[O-] | 1.92 µM | 5.81 | 1.34 µM | 3.04 µM | 1.91 µM | 3.58 µM | 1.48 µM | 2.8 | 1.24 µM | 2.56 | 1.49 µM | 2.81 | 1.71 µM | 4.3 | 1.82 µM | 4.94 | 2.37 | 6.31 | 1.59 µM | 2.94 |
| CN1CCN(CCc2cccc(C(=O)c3cnn(-c4ccc(F)cc4)c3N)c2)CC1 | > 25 µM | > 25 | > 25 µM | > 25 µM | > 25 µM | > 25 µM | > 25 µM | > 25 | > 25 µM | > 25 | > 25 µM | > 25 | > 25 µM | > 25 | > 25 µM | > 25 | > 25 | > 25 | > 25 µM | > 25 |
| C=C1C(=O)O[C@H]2[C@H]1CC/C(COC(=O)NCc1ccccc1OC)=C\CC[C@@]1(C)O[C@@H]21 | 2.01 µM | 5.7 | 1.57 µM | 4.36 µM | 1.04 µM | 2.57 µM | 1.27 µM | 2.85 | 1.68 µM | 3.18 | 0.768 µM | 3.16 | 3.13 µM | 10.6 | 2.11 µM | 4.96 | 2.45 | 8.38 | 2.86 µM | 8.03 |
| O=CNc1c(Cl)cc2c(c1Cl)Cc1cc([N+](=O)[O-])ccc1-2 | 5.49 µM | > 100 | 0.923 µM | 38.7 µM | 10.8 µM | 46.4 µM | 7.83 µM | > 100 | 1.81 µM | 29.3 | 3.33 µM | > 100 | 8.06 µM | > 100 | 4.21 µM | > 94.1 | 11.6 | > 100 | 1.11 µM | > 100 |
| O=C(c1ccc(F)cc1)c1cccc(C(=O)c2ccc(F)cc2)n1 |  | > 100 |  | 79.3 µM |  | 33.4 µM |  | > 100 |  | 66.6 |  | > 100 |  | > 100 |  | > 78 |  | > 100 |  | > 79.2 |
| COC(=O)[C@H](Cc1cn(C)cn1)NC(=O)[C@H](Cc1c[nH]c2ccccc12)NC(=O)Nc1cc(C(F)(F)F)cc(C(F)(F)F)c1 | > 10 µM | > 10 | > 10 µM | > 10 µM | > 10 µM | > 10 µM | > 10 µM | > 10 | > 10 µM | > 10 | > 10 µM | > 10 | > 10 µM | > 10 | > 10 µM | > 10 | > 10 | > 10 | > 10 µM | > 10 |
| COc1cc(C2c3cc4c(cc3OC(N3CCCC3)C2C)OCO4)cc(OC)c1OC (configuration not stated) |  | > 100 |  | 30.2 µM |  | 2.41 µM |  | 38.3 |  | 41.2 |  | > 33.9 |  | > 62.5 |  | 3.19 |  | 9.82 |  | 5.06 |
| CC(C)(C)C[C@H]1NC(C(=O)NCC[C@H](O)CO)[C@H](c2cccc(Cl)c2)[C@@]12C(=O)Nc1cc(Cl)c(F)cc12 (some centres not stated) | 16.7 µM | 37.7 | 4.08 µM | 21.1 µM | 13.7 µM | 27.1 µM | 3.28 µM | 16.3 | 5.13 µM | 19.2 | 16.6 µM | 34.1 | 14.9 µM | 34.7 | 2.46 µM | 14.1 | 18.6 | 39.1 | 6.73 µM | 20 |
| COC(=O)/C=C/C=C(c1ccccc1)c1ccccc1 | 3.16 µM | > 100 |  |  | 6.24 µM | 30 µM | 5.56 µM | > 100 | 3.27 µM | 37.8 | 3.03 µM | > 100 | 4.67 µM | > 100 | 14.3 µM | > 100 | 15 | > 100 | 3.43 µM | 13.8 |
| CC(C)NC[C@@H](C(=O)N1CCN(c2ncnc3c2[C@H](C)C[C@H]3O)CC1)c1ccc(Cl)cc1 | 0.208 µM and 0.236 µM |  | 0.156 µM and 0.203 µM | 0.731 µM and 3.02 µM | 0.293 µM and 0.341 µM | 4.85 µM and 5.55 µM | > 10 µM and 22.8 µM | > 100 | 6.57 µM and 16.2 µM | > 87.3 | > 10 µM and 35.9 µM | > 100 | 0.566 µM and 0.887 µM | > 100 | 5.16 µM and 13.3 µM | > 100 | > 100 | > 100 | > 10 µM and 27.8 µM | > 100 |
